Patent US6214821A, “Methods and composition for the inhibition of cancer cells” (Washington State University Research Foundation, priority 1999, dated 2001)
Like-named read-outs stand apart in the source and are kept apart here.

Tests used:
[1] = test system: MDA-231 cells; assay: ELISA BrdU incorporation assay (DNA synthesis); assay type: cell-based, human; details: TPT 10 and 50 nM, 24 hr
[2] = basic side-chain at position 9 forms salts with acids; cited from earlier work
[3] = test system: MDA-231 cells; assay: FACS cell cycle / BrdU DNA synthesis assay; assay type: cell-based, human; details: TPT 10, 50, 100 nM, 24 h, FIG. 8A
[4] = test system: HMEC (p53+); assay: Crystal violet staining growth inhibition assay, median effect analysis; details: Homo sapiens, 24 h, read-out: IC50 HMEC (p53+)
[5] = in vivo; details: rat, iv, 10 mg/kg
[6] = test system: MDA-231 (mutant p53); assay: Crystal violet staining growth inhibition assay, median effect analysis; details: Homo sapiens, MDA-MB-231, 24 h, read-out: IC50 MDA-231 (p53-)
[7] = test system: murine bone marrow cells (CFU-GM); assay: In vitro bone marrow cell protection assay (CFU-GM colonies); assay type: cell-based, C57/BL mice; details: Mus musculus, 0-1000 nM, combination 1:1 molar ratio
[8] = test system: HMEC/E6 (p53-); assay: Crystal violet staining growth inhibition assay, median effect analysis; assay type: cell-based; details: Homo sapiens, 24 hr treatment
Source text: Cytotoxicity and Bromodeoxyuridine incorporation assays. […] Enzyme Regul.

[9] = test system: DNA damage-dependent G2 -checkpoint; details: cited from earlier work
[10] = test system: GI 101A cells; assay: Flow cytometric cell cycle analysis (propidium iodide); assay type: cell-based, human; details: 100 nM CPT, 24 h
[11] = test system: MDA-231 cells; details: cited from earlier work
[12] = test system: CPT-resistant cells; details: low doses of CPT; cited from earlier work
[13] = test system: MDA-231 cells; assay: Flow cytometric cell cycle analysis (propidium iodide); assay type: cell-based, human; details: 100 nM CPT, 24 h
[14] = test system: CPT-sensitive cells; details: very high doses of CPT; cited from earlier work
[15] = test system: GI 101A cells; details: cited from earlier work
[16] = test system: p34^cdc2 in HeLa cells; details: CPT treatment; cited from earlier work
[17] = test system: MDA-231 cells; assay: cells; assay type: cell-based, human; details: Homo sapiens
Source text: (§1) . Cell lines and Culture.
(§2) Drugs and Chemical Reagents. […] . […] All other chemicals were reagent grade.
(§3) Drug Treatment and Survival Curves.
(§4) Pharmacol. 28:370-376 (1991). […] .
(§5) Drug Combinations and Data Analysis. […] . Pharmacol. (in press, 1997). […] Enzyme Regul. […] Enzyme Regul. 22:27-55 (1984).
(§6) . […] Enzyme Regul. 22:27-55 (1984).

[18] = test system: GI 101A cells; assay: cells; assay type: cell-based, human; details: Homo sapiens, 24 h
Source text: as §1, §2, §3, §4, §5, §6

[19] = test system: normal endothelial cells (BVEC); assay: Flow cytometric cell cycle analysis (propidium iodide); assay type: cell-based, bovine; details: 100 nM CPT, 24 h
[20] = test system: normal bovine venular endothelial cells (BVEC); assay: cells; details: Bos taurus, Endothelial cell, 24 h, read-out: dose inhibiting growth by 50% (CPT alone)

## CC[C@@]1(O)C(=O)OCc2c1cc1n(c2=O)Cc2cc3c(CN(C)C)c(O)ccc3nc2-1 [TPT, (S)-10[(dimethylamino)methyl]-4-ethyl-4,9-dihydroxy-IH-pyrano[3',4': 6,7]ind olizino[1,2-b]quinolone-3,14(4H,12H)-dione]
[1]
  BrdU incorporation: stopped incorporating BrdU
[2]
  water solubility: water-soluble
[3]
  cell cycle effect of TPT by itself: induced an accumulation of MDA-231 cells in S phase
[4]
  IC50: 6 nM
[5]; plasma
  half-life: 1.53 h
[6]
  IC50: 37 nM
[7]
  IC50: 19 nM
[8]
  IC50: 34 nM

## Cn1c(=O)c2c(ncn2C)n(C)c1=O [caffeine]
[9]
  effect on DNA damage-dependent G2 checkpoint: override the DNA damage-dependent G2 -checkpoint and enhance drug-induced cytotoxicity

## CC[C@@]1(O)C(=O)OCc2c1cc1n(c2=O)Cc2cc3ccccc3nc2-1 [CPT, Camptothecin]
[10]
  cell cycle effect of CPT alone: caused an arrest of tumor as well as normal cells in S phase
[11]
  cell cycle effect of CPT at low and high doses: in the G2 phase while at high doses cells are arrested in the S phase
[12]
  3H-thymidine incorporation: stopped incorporating ^3 H-thymidine
[13]
  cell cycle effect of CPT alone: caused an arrest of tumor as well as normal cells in S phase
[14]
  3H-thymidine incorporation: continued to incorporate ^3 H-thymidine
[15]
  cell cycle effect of CPT at low and high doses: in the G2 phase while at high doses cells are arrested in the S phase
[16]
  p34cdc2 activity: loss in activity of p34^cdc2 in HeLa cells
[5]; in vivo
  half-life: 1.42 h
[17]; MDA-MB-231, 24 h, read-out: 50% inhibition of cell growth (CPT alone)
  IC50: 200 nM
[17]; MDA-MB-231, 24 h, read-out: median-effect dose, Dm, for CPT
  IC50: 28 nM
[17]; MDA-MB-231, read-out: IC50 of CPT in the absence of UCN-01 (so in the source)
  IC50: 5 nM
[18]; read-out: 50% inhibition of cell growth (CPT alone)
  IC50: 300 nM
[18]; read-out: median-effect dose, Dm, for CPT
  IC50: 104 nM
[19]
  cell cycle effect of CPT alone: caused an arrest of tumor as well as normal cells in S phase
[20]
  IC50: > 1000 nM
